Assay results reported in US8329738B2, “Use of AMPK-activating imidazole derivatives, preparation process therefor and pharmaceutical compositions comprising them” (Merck Patent Gesellschaft mit Beschränkter Haftung, priority 2006, dated 2012).

How the values were obtained:
[1] = system: AMPK; assay: AMPK activation: phosphorylation of peptide AMARAA, Delfia protocol; format: biochemical; conditions: relative to the basal activity (100%) obtained in the absence of AMP, partially purified AMPK from rat liver
Method: 25 mU of AMPK are incubated in the presence of different concentrations of AMP or of products, for 30 minutes at 30° C., in a final volume of 30 μl comprising 50 mM Hepes, 19 mM MgCl2, 125 μM ATP, 5 mM NaPPi, 1 mM EDTA, 1 mM DTT, 2 mM Na3VO4 and 25 μM of peptide AMARAA biotinyl (Biot-NH-AMARAASAAALARRR-COOH).
The phosphorylation of the peptide AMARAA is then measured according to a Delfia protocol (Perkin-Elmer), using a europium-labelled anti-phospho-serine specific antibody.
The AMPK used in this test is a partially purified protein from rat liver.
The percentage of activation is calculated relative to the basal activity (100%) obtained in the absence of AMP.

| SMILES | melting point [°C] | % Activation at 200 μM [1] [%] |
| --- | --- | --- |
| COc1ccc(NC(=O)Nc2ccc(Cn3cnc(O)c3C(N)=O)cc2)cc1 [Example 43, 5-hydroxy-3-{4-[3-(4-methoxyphenyl)ureido]benzyl}-3H-imidazole-4-carboxamide] |  | 229 |
| CCOC(=O)c1ncn(CCOc2ccc(F)cc2)c1O [Example 7, ethyl 5-hydroxy-1-[2-(-4-fluorophenoxy)ethyl]-1H-imidazole-4-carboxylate] | 200 |  |
| NC(=O)c1ncn(CCOc2ccccc2)c1O [Example 2, 5-hydroxy-1-(2-phenoxyethyl)-1H-imidazole-4-carboxamide] | 192 |  |
| NC(=O)c1ncn(CCOc2ccc(F)cc2)c1O [Example 1, 1-[2-(4-fluorophenoxy)ethyl]-5-hydroxy-1H-imidazole-4-carboxamide] | 204 |  |
| NC(=O)c1c(O)ncn1Cc1ccc(NC(=O)Nc2ccc(Cl)cc2)cc1 [Example 44, 5-hydroxy-3-{4-[3-(4-chlorophenyl)ureido]benzyl}-3H-imidazole-4-carboxamide] |  | 147 |
| CSc1ccc(NC(=O)Nc2ccc(Cn3cnc(O)c3C(N)=O)cc2)cc1 [Example 58, 5-hydroxy-3-{4-[3-(4-methylsulfanylphenyl)ureido]benzyl}-3H-imidazole-4-carboxamide] |  | 311 |
| CCc1ccc(NC(=O)Nc2ccc(Cn3cnc(O)c3C(N)=O)cc2)cc1 [Example 56, 5-hydroxy-3-{4-[3-(4-ethylphenyl)ureido]benzyl}-3H-imidazole-4-carboxamide] |  | 289 |
| COC(=O)c1ccc(OCCn2cnc(C(N)=O)c2O)cc1 [Example 4, methyl 4-[2-(4-carbamoyl-5-hydroxyimidazol-1-yl)ethoxy]benzoate] | 190 |  |
| N#Cc1ccc(OCCn2cnc(C(N)=O)c2O)cc1 [Example 3, 1-[2-(4-cyanophenoxy)ethyl]-5-hydroxy-1H-imidazole-4-carboxamide] | 190 |  |
| CCOC(=O)c1ncn(CCOc2ccc(C#N)cc2)c1O [Example 6, ethyl 5-hydroxy-1-[2-(-4-cyanophenoxy)ethyl]-1H-imidazole-4-carboxylate] | 190 |  |
| NC(=O)c1c(O)ncn1Cc1ccc(NC(=O)Nc2cccc3ccccc23)cc1 [Example 47, 5-hydroxy-3-[4-(3-naphthalen-1-ylureido)benzyl]-3H-imidazole-4-carboxamide] |  | 184 |

Second part, led by results:

| melting point [°C] | SMILES | % Activation at 200 μM [1] [%] |
| --- | --- | --- |
| 243 to 244 | NC(=O)Nc1ccc(Cn2cnc(O)c2C(N)=O)cc1 [Example 42, 5-hydroxy-3-[4-ureidobenzyl]-3H-imidazole-4-carboxamide] |  |
| 182 | NC(=O)c1c(O)ncn1-c1ccccc1 [Example 13, 5-hydroxy-3-phenylimidazole-4-carboxamide] |  |
| 263 | COC(=O)c1ccc(OCCn2cnc(O)c2C(N)=O)cc1 [Example 16b is, methyl 4-[2-(5-carbamoyl-4-hydroxyimidazol-1-yl)ethoxy]-benzoate] |  |
| 257 to 259 | COc1cccc(C(=O)Nc2ccc(Cn3cnc(O)c3C(N)=O)cc2)c1 [Example 21, 5-hydroxy-3-[4-(3-methoxybenzoylamino)benzyl]-3H-imidazole-4-carboxamide] |  |
| 150 to 153 | CCOC(=O)c1ncn(Cc2ccccc2)c1OC [Example 9, ethyl 1-benzyl-5-methoxy-1H-imidazole-4-carboxylate] |  |
| 266 to 268 | CCOC(=O)c1ccc(Cn2cnc(O)c2C(N)=O)cc1 [Example 12, 5-hydroxy-3-[4-(ethoxycarbonyl)benzyl]imidazole-4-carboxamide] |  |
| 264 | N#Cc1ccc(OCCn2cnc(O)c2C(N)=O)cc1 [Example 16, 3-[2-(4-cyanophenoxy)ethyl]-5-hydroxy-3H-imidazole-4-carboxamide] |  |
| 193 to 195 | NC(=O)c1c(OCc2ccccc2)ncn1Cc1ccc([N+](=O)[O-])cc1 [Example 20, 3-(4-nitrobenzyl)-5-benzyloxy-3H-imidazole-4-carboxamide] |  |
| 230 to 231 | NC(=O)c1c(O)ncn1Cc1ccc(N)cc1 [Example 18, 3-(4-aminobenzyl)-5-hydroxy-3H-imidazole-4-carboxamide] |  |
| 230 | NC(=O)c1c(O)ncn1CCOc1ccc(F)cc1 [Example 15, 3-[2-(4-fluorophenoxy)ethyl]-5-hydroxy-3H-imidazole-4-carboxamide] |  |
| 201 to 203 | COc1ncn(Cc2ccc([N+](=O)[O-])cc2)c1C(N)=O [Example 19, 3-(4-nitrobenzyl)-5-methoxy-3H-imidazole-4-carboxamide] |  |
| 232 to 235 | NC(=O)c1c(O)ncn1Cc1ccc(NC(=O)Nc2ccccc2)cc1 [Example 41, 5-hydroxy-3-[4-(3-phenylureido)benzyl]-3H-imidazole-4-carboxamide] |  |
| 202 | CCOC(=O)c1ncn(CCOc2ccc(C(=O)OC)cc2)c1O [Example 8, ethyl 5-hydroxy-1-{2-[-4(methoxycarbonyl)phenoxy]ethyl}-1H-imidazole-4-carboxylate] |  |
| 218 to 220 | NC(=O)c1c(O)ncn1Cc1ccc(NC(=O)Nc2cccc(C(=O)O)c2)cc1 [Example 70, 3-{3-[4-(5-carbamoyl-4-hydroxyimidazol-1-ylmethyl)phenyl]ureido}benzoic acid] |  |
| 230 to 234 | NC(=O)c1c(O)ncn1Cc1ccc(F)cc1 [Example 10, 5-hydroxy-3-(4-fluorobenzyl)imidazole-4-carboxamide] |  |
| 206 to 212 | NC(=O)c1c(O)ncn1Cc1ccc(Cl)cc1 [Example 11, 5-hydroxy-3(4-chlorobenzyl)imidazole 4-carboxamide] |  |
